# Data published in ChEMBL document CHEMBL1201862, “PubChem BioAssay data set” (2004).
# The source made the active and inactive calls.
# Experiments:
# [1] = target: T1, Long-chain-fatty-acid--AMP ligase FadD28 (Mycobacterium tuberculosis, UniProt P9WQ59); assay: Fluorescence polarization aasay to screen for inhibitors that compete for the binding of FadD28 to a bisubstrate Measured in Biochemical System Using Plate Reader - 2147-01_Inhibitor_Dose_CherryPick_Activity.; type: functional, Mycobacterium tuberculosis H37Rv
# T1 sequence (P9WQ59 whole entry): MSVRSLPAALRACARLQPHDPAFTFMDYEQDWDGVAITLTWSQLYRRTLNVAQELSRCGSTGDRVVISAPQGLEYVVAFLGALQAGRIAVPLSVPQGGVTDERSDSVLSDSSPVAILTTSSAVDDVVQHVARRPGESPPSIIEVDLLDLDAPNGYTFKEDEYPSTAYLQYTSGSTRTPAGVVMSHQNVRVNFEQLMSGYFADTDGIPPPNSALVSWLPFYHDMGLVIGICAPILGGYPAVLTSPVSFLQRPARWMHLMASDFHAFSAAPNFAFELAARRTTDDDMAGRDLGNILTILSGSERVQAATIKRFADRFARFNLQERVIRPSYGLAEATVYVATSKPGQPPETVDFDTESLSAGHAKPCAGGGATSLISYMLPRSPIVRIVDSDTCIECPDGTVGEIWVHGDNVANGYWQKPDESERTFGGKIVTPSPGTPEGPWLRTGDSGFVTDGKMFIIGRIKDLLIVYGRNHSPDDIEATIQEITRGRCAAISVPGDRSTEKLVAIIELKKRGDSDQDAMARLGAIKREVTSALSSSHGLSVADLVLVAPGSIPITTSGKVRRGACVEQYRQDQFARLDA
# [2] = target: T2, Microphthalmia-associated transcription factor (Homo sapiens, UniProt O75030); assay: TRPM1 promoter luciferase signal decrease, dose response, MITF inhibitor project, cell-based, SK-MEL-5, cherry-picked, set 3 (AID 493073); type: functional
# T2 sequence (O75030 whole entry): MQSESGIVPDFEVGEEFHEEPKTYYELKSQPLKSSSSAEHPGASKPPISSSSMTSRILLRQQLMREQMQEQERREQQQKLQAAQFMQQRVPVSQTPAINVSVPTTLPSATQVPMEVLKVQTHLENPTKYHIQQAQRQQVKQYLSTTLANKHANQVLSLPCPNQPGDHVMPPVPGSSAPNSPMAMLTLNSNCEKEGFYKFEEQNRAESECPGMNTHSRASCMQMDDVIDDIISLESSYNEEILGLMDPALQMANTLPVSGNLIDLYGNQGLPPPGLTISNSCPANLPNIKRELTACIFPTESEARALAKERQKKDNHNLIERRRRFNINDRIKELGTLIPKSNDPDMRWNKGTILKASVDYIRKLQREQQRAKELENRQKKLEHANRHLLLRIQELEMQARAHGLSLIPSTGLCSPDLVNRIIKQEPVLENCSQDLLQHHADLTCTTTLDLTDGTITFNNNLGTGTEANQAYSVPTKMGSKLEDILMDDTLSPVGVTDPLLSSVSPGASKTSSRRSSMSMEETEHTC
# [3] = inhibitors of HIV Env-driven cell fusion, dose response, cherry-pick (AID 652057); type: functional, cell-based
# [4] = system: HEK293; assay: cells; settings: Homo sapiens
# [5] = ZM109 Env clade C HIV-1 fusion inhibitors, dose response, HeLa effector, CEM target cells, luciferase, cherry-pick (AID 652058); type: functional, cell-based
# [6] = inhibitors of clade B AD8 Env fusion, dose response, cell-based, cherry-pick (AID 652062); type: functional;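 note: luciferase signal from cell-cell fusion driven by HIV-1 clade B AD8 Env; potency is for inhibitors of fusion seen as a drop in luminescence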
# [7] = system: HEK293; assay: cells; settings: Homo sapiens; remark: listed apart in the source
# [8] = off-target signal loss in HeLa-CEM21 co-culture – HeLa F-luc CTL cells, cherry-picked, counter-screen for HIV-1 Env fusion inhibitor project, dose response (AID 652040); type: functional, cell-based;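 note: potency for signal decrease marking cytotoxic or nonspecific inhibition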
# [9] = inhibitors of PGC1a acetylation in cells, dose response, cell-based, cherry-picked samples (AID 720514); type: functional;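 note: potency may reflect raised or lowered acetylation signal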
# [10] = CEM21 lymphoblast cell cytotoxicity, dose response, cytotoxicity control for viral fusion inhibitor project, CellTiter-Glo luminescence, cherry-picked (AID 652042); type: functional, cell-based;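 note: potency for signal decrease meaning cytotoxicity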
# [11] = target: T3, Streptokinase A (Streptococcus pyogenes serotype M1, UniProt P10520); assay: S. pyogenes streptokinase expression inhibitors, potency, dose response, plasminogen activation absorbance, OD405 (AID 1914); type: functional, Streptococcus pyogenes M1 GAS;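 note: secreted streptokinase activity via plasminogen activation per viability signal from cell pellet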
# T3 sequence (P10520 whole entry): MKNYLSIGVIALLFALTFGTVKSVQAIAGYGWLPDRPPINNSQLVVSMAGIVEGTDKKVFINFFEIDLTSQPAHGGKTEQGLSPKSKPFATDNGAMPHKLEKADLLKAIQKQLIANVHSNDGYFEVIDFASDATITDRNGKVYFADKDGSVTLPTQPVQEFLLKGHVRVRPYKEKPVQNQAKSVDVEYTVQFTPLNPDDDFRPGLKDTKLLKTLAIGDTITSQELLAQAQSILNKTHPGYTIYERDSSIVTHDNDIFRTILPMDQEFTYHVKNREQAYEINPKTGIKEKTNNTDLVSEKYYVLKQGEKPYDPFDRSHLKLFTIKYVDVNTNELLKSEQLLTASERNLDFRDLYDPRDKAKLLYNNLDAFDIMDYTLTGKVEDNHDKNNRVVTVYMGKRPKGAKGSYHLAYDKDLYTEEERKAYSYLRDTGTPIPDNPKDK
# [12] = system: Streptococcus; assay: Group A Streptococcus viability loss, dose response, counter-screen for streptokinase expression inhibitor project, luminescence, BacTiterGlo (AID 1915); type: functional, organism-based;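 note: potency for reduction of bacterial viability or growth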
# [13] = system: Streptococcus sp. 'group A'; assay: growth inhibition of control SK(-) GAS strain, dose response, counter-screen for streptokinase expression inhibitor project, luminescence, kanamycin, BacTiterGlo, confirmation (AID 1900); type: functional, organism-based
# [14] = target: T4, Hexokinase HKDC1 (Homo sapiens, UniProt Q2TB90); assay: HKDC1 hexokinase inhibitors, dose response, biochemical, W721R variant (AID 504729); type: functional
# T4 sequence (Q2TB90 whole entry): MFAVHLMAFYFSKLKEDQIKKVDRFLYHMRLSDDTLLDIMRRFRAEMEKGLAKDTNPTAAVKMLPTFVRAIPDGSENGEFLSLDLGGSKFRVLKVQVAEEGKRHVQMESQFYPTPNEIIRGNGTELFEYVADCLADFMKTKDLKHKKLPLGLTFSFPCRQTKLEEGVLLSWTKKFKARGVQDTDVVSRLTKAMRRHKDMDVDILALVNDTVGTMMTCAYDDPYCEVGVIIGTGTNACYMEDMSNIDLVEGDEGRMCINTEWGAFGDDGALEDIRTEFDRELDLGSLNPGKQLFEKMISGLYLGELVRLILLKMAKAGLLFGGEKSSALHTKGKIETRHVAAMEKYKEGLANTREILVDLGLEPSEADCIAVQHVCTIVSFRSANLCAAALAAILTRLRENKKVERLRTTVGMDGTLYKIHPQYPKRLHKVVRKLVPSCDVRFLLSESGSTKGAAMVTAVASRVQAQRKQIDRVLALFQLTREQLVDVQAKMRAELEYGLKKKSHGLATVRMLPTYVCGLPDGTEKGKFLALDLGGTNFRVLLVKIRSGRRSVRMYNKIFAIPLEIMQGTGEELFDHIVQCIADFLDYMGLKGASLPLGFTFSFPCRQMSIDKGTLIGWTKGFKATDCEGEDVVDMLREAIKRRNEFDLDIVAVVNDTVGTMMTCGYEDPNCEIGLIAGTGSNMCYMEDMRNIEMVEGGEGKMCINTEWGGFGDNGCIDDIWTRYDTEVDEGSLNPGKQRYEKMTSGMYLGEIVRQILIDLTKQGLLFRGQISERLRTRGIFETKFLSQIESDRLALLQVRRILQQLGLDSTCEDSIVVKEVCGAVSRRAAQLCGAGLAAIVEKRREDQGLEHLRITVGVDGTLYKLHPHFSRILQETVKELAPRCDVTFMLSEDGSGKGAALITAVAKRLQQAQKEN
# [15] = target: Genome polyprotein (dengue virus type 2, UniProt P29990); assay: Dengue-2 NS5 methyltransferase inhibitors, primary screen, biochemical, confirmation dose response (AID 588689); type: functional
# Sequence of Genome polyprotein (P29990 2492-3391 limits assumed): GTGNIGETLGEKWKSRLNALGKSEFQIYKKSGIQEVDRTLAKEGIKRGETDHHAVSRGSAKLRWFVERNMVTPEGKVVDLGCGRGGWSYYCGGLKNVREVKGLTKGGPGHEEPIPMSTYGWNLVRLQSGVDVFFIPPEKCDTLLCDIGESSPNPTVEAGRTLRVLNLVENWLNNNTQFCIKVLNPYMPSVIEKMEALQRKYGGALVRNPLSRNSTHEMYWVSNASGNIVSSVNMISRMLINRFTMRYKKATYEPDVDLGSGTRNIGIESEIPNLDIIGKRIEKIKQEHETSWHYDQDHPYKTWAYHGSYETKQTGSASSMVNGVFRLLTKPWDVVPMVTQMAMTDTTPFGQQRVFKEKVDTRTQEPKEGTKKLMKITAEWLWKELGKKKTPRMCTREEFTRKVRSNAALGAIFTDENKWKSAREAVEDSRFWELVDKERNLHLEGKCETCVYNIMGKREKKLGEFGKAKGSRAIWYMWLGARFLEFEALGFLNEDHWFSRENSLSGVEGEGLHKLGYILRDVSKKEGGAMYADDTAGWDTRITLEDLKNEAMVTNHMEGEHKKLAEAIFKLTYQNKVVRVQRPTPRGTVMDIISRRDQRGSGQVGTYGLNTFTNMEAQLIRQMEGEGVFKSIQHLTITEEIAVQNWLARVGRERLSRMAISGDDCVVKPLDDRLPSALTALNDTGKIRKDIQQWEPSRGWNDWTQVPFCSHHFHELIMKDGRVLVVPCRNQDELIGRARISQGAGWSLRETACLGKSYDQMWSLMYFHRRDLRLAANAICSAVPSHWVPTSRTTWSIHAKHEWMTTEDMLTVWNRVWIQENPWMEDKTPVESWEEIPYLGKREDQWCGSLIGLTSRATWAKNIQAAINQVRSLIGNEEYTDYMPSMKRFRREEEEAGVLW
# [16] = target: Large T antigen (Simian virus 40, UniProt P03070); type: functional, Betapolyomavirus macacae;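 note: Confirmatory-stage PubChem screen for compounds that inhibit SV40 T antigen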
# Sequence of Large T antigen (P03070 whole entry): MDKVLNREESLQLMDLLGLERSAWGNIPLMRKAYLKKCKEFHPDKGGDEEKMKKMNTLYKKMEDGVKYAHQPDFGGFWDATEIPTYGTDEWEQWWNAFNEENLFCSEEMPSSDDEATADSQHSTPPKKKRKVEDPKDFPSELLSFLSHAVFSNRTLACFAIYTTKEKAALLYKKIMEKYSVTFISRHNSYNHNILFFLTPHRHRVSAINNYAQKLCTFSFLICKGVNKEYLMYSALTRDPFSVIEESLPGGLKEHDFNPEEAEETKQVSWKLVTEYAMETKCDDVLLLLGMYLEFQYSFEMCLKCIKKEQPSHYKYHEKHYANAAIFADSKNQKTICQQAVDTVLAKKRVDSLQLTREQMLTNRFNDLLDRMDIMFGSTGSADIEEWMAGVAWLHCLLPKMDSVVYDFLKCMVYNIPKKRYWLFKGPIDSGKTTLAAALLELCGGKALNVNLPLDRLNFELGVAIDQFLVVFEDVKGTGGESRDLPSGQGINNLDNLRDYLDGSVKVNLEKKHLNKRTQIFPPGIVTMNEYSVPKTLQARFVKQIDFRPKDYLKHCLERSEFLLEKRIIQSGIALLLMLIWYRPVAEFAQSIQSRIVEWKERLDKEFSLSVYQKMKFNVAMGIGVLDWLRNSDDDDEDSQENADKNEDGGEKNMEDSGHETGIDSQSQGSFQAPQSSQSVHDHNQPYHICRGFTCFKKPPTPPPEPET
# [17] = system: Vero; assay: Vero cell cytotoxicity, cytotoxicity control for flavivirus capping enzyme inhibitors (AID 588742); type: functional; settings: Chlorocebus sabaeus
# [18] = target: T5, Tyrosyl-DNA phosphodiesterase 2 (Homo sapiens, UniProt O95551); assay: human TDP2 enzyme inhibitors, dose response, biochemical, epi absorbance, IC50 (AID 743297)
# T5 sequence (O95551 whole entry): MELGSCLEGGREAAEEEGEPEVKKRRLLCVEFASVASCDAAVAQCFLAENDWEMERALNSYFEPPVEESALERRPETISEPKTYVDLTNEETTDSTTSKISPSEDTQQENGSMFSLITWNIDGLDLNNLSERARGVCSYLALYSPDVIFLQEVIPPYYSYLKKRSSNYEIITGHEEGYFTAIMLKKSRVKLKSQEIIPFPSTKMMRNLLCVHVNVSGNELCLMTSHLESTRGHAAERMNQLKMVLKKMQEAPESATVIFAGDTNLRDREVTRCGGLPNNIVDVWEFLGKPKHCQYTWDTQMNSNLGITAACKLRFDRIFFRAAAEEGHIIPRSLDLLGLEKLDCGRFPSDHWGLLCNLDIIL
# [19] = control 3'UTR Renilla luciferase suppression, dose response, counter-screen for Shn3 inhibitor project, cell-based, Clone20-Shn3RL, cherry-picked (AID 624133); type: functional
# [20] = target: T6, Cytochrome P450 1A2 (Homo sapiens, UniProt P05177);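 note: PubChem cytochrome P450 panel assay, CYP1A2 panel member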
# T6 sequence (P05177 whole entry): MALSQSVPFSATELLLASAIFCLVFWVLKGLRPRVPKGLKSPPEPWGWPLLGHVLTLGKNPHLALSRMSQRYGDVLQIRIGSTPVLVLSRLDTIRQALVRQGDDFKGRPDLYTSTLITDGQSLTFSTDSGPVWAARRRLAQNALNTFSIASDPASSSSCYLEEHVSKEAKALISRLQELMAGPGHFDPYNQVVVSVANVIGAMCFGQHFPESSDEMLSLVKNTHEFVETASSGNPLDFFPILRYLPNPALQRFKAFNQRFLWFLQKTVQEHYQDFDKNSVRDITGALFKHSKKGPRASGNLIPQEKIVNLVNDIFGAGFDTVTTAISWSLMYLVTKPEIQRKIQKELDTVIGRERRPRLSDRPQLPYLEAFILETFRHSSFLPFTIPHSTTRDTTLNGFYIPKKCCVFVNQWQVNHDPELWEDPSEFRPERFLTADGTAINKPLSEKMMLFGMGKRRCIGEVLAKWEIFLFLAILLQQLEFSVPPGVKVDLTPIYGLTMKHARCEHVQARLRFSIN
# [21] = HepG2 cell cytotoxicity, dose response, cytotoxicity control for Shn3 inhibitor project, CellTiter-Glo, cherry-picked (AID 624134); type: functional, cell-based
# [22] = Shn3 3'UTR reporter inhibitors, dose response, cell-based, Clone20 osteoblasts, firefly luciferase, cherry-picked (AID 624132); type: functional;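 note: firefly luciferase luminescence from reporter carrying the Shn3 3'UTR in osteoblasts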
# [23] = target: T7, Rac GTPase-activating protein 1 (Homo sapiens, UniProt Q9H0H5); assay: MgcRacGAP GTPase-activating activity inhibitors, confirmation, biochemical, ADP Hunter fluorescence, primary and confirmatory (AID 624330); type: functional
# T7 sequence (Q9H0H5 whole entry): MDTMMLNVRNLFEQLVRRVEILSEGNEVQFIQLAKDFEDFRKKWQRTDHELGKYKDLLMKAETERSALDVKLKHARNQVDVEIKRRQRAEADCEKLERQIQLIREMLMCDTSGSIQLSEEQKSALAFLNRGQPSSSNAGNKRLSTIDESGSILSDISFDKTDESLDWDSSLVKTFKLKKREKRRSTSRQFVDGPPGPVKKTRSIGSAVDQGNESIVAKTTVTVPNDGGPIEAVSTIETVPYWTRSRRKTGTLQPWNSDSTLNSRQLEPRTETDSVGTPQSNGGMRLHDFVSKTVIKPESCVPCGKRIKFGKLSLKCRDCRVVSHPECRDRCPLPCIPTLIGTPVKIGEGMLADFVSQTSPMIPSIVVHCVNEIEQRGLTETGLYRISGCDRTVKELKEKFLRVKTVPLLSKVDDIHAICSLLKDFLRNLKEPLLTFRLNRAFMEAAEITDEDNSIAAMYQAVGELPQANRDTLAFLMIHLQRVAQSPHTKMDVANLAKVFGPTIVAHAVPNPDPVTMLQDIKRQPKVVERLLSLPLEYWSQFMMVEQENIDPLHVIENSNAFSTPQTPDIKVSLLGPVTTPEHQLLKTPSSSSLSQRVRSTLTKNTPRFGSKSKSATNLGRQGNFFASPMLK
# [24] = HeLa cell cytotoxicity, dose response, cytotoxicity control for MgcRacGAP inhibitor project (AID 624300); type: functional
smiles,measurement,setting,value
O=C(O)c1cccc(N/N=C/c2ccc(OC(F)(F)F)cc2)c1,AC50,[1],39.7 µM (active)
same,AC50,[2],5.95 µM (active)
CCC(C)(C)NC(=O)C(NS(=O)(=O)c1cccs1)c1ccccc1 (centres undefined),AC50,[3],4.25 µM (active)
same,EC50,[4],> 59.6 µM (inactive)
same,AC50,[5],4.71 µM (active)
same,AC50,[6],5.84 µM (active)
same,EC50,[7],> 59.6 µM (inactive)
same,AC50,[8],4.24 µM (active)
C[C@@H]1CCCCO[C@H](CN(C)C(=O)NC2CCCCC2)[C@@H](C)CN([C@@H](C)CO)C(=O)c2cc(NC(=O)NC3CCCCC3)ccc2O1,AC50,[9],26 µM (active)
Cc1cccc(NC(=O)c2cc3n(n2)C(C(F)(F)F)CC(c2ccc4c(c2)OCO4)N3)c1 (centres undefined),AC50,[3],7.49 µM (active)
same,AC50,[5],7.75 µM (active)
same,AC50,[6],17 µM (active)
same,AC50,[10],61 µM (active)
same,EC50,[11],28.7 µM (active)
same,EC50,[12],139 µM (active)
same,EC50,[13],12.9 µM (active)
same,AC50,[8],4.41 µM (active)
Cc1cccc(-n2c3nc(=O)[nH]c(=O)c-3cc3cc([N+](=O)[O-])ccc32)c1,IC50,[14],10.4 µM (active)
same,IC50,[15],32.7 µM (active)
same,IC50,[16],> 100 µM (active)
same,CC50,[17],24.8 µM (active)
same,IC50,[18],> 128 µM (inactive)
O=C(Nc1ccc(Oc2ccccc2)cc1)C1CCN(c2c3c(nc4ncnn24)CCC3)CC1,AC50,[19],10.5 µM (active)
same,AC50,[3],3.83 µM (active)
same,AC50,[20],15.8 µM (inconclusive)
same,AC50,[5],9.59 µM (active)
same,AC50,[21],7.3 µM (active)
same,AC50,[6],4.29 µM (active)
same,AC50,[10],42.7 µM (active)
same,AC50,[22],5.64 µM (active)
same,AC50,[8],> 32 µM (inactive)
COc1cc(/C=N/NC(=O)CN(Cc2ccccc2)S(=O)(=O)c2ccc3c(c2)OCCO3)ccc1O,AC50,[1],> 100 µM (inactive)
same,IC50,[23],74.6 µM (active)
same,CC50,[24],100 µM (active)
